For one experiment, the target named is T1, σ receptor (Rattus norvegicus, UniProt Q9R0C9).
T1 construct: can be performed with particulate membranes prepared using a modification of the method described in Pasternak et al; tissue Rockland (Gilbertsville, Pa.); host or cells: rat brain minus cerebellum, crude particulate membranes
Briefly: σ receptor radio-receptor binding assay. From the text: Additionally, such compounds can be tested in a σ receptor assay. Ligands for the σ receptor can be useful as antipsychotic agents, as described in Abou-Gharbia et al., Annual Reports in Medicinal Chemistry, 28:1-10 (1993).
Radio-receptor assays, such as those whose results are shown in Examples IV, V and VI, below, can be performed with particulate membranes prepared using a modification of the method described in Pasternak et al., Mol. Pharmacol. 11:340-351 (1975), which is incorporated herein by reference. Rat brains frozen in liquid nitrogen can be obtained from Rockland (Gilbertsville, Pa.). The brains are thawed, the cerebella removed and the remaining tissue weighed. Each brain is individually homogenized in 40 ml Tris-HCl buffer (50 mM, pH 7.4, 4° C.) and centrifuged (Sorvall® RC5C SA-600: Du Pont, Wilmington, Del.) (16,000 rpm) for 10 minutes. The pellets are resuspended in fresh Tris-HCl buffer and incubated at 37° C. for 40 minutes. Following incubation, the suspensions are centrifuged as before, the resulting pellets resuspended in 100 volumes of Tris buffer and the suspensions combined. Membrane suspensions are prepared and used in the same day.
Binding assays are carried out in polypropylene tubes, each tube containing 0.5 ml of membrane suspension. 8 nM of ^3H-[D-Ala^2,Me-Phe^4,Gly-ol^5]enkephalin (DAMGO) (specific activity=36 Ci/mmol, 160,000 cpm per tube; which can be obtained from Multiple Peptide Systems, San Diego, Calif., through NIDA drug distribution program 271-90-7302) and 80 μg/ml of bicyclic guanidine, individual or as a mixture and Tris-HCl buffer in a total volume of 0.65 ml. Assay tubes are incubated for 60 mins. at 25° C. The reaction is terminated by filtration through GF-B filters on a Tomtec harvester (Orange, Conn.). The filters are subsequently washed with 6 ml of Tris-HCl buffer, 4° C. Bound radioactivity is counted on a Pharmacia Biotech Betaplate Liquid Scintillation Counter (Piscataway, N.J.) and expressed in cpm. To determine inter- and intra-assay variation, standard curves in which ^3H-DAMGO is incubated in the presence of a range of concentrations of unlabeled DAMGO (0.13-3900 nM) are generally included in each plate of each assay (a 96-well format). Competitive inhibition assays are performed as above using serial dilutions of the bicyclic guanidines, individually or in mixtures.
As opposed to this μ receptor selective assay, which can be carried out using ^3H-DAMGO as radioligand, as described above, assays selective for κ receptors can be carried out using [^3H]-U69,593 (3 nM, specific activity 62 Ci/mmol) as radioligand. Assays selective for δ opiate receptors can be carried out using tritiated DSLET ([D-Ser^2, D-Leu^5]-threonine-enkephalin) as radioligand. Assays selective for the σ opiate receptor can use radiolabeled pentazocine as ligand.

In the next experiment the target is T2, κ-opioid receptor (Rattus norvegicus, UniProt P34975).
T2 construct: can be performed with particulate membranes prepared using a modification of the method described in Pasternak et al; tissue Rockland (Gilbertsville, Pa.); host or cells: rat brain minus cerebellum, crude particulate membranes
T2 sequence (P34975 whole entry): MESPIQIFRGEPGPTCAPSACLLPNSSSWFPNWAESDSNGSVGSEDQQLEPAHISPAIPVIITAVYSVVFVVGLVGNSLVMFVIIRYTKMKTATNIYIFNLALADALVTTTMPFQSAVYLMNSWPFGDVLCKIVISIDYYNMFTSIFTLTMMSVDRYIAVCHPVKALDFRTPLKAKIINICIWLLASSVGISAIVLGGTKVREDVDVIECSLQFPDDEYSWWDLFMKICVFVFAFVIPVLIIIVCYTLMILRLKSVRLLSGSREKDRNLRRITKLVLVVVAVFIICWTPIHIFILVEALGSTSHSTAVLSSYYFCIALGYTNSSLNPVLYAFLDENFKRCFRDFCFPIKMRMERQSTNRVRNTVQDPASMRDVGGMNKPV
Briefly: κ-opioid receptor radio-receptor binding assay ([3H]-U69,593). The settings on record: Table 9.

Where [1] appears, read: 17 additional individual compounds, Table 11.
[2] abbreviates: 24 individual compounds, Table 10.
[3] abbreviates: 24 individual compounds, read-out: IC50.

Read-outs that look alike come from different tables or passages of the source.

By IC50 is commonly meant the concentration that inhibits the measured activity by half.

T1 sequence (Q9R0C9 whole entry): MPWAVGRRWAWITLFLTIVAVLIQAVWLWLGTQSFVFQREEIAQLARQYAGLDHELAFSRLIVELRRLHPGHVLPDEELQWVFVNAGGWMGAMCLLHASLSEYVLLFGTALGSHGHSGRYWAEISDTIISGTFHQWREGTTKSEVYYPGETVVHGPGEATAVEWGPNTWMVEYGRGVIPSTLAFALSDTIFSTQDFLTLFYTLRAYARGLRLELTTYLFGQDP

Take `CCCC[C@H]1CN=C2N(CC)[C@@H](Cc3ccccc3)CN21` [Nle/Phe/acetic acid]: the IC50 on σ receptor (setting [1]) was found to be 214 nM.
On σ receptor (setting [1]), `CCN1C2=NCC(Cc3ccccc3)N2CC1CC1CCCCC1` (stereo not drawn) [Phe/Cha/acetic acid] showed an IC50 of 52 nM.
Still for that read-out and setting: for `CC(C)(C)CCN1C2=NC[C@H](Cc3ccccc3)N2C[C@@H]1Cc1ccccc1` [Phe/Phe/(tert-butyl)acetic acid] the value was 112 nM.
With `CC(C)CCN1C2=NC[C@H](Cc3ccccc3)N2C[C@@H]1Cc1ccccc1` [Phe/Phe/isovaleric acid], the IC50 at σ receptor (setting [1]) is 156 nM.
On σ receptor (setting [1]), `CCN1C2=NC[C@H](Cc3ccccc3)N2C[C@@H]1Cc1ccc(OC)cc1` [Phe/Tyr(Me)/acetic acid] showed a half-inhibitory concentration (IC50) of 69 nM.
The same measure, in the same setting: for `CCN1C2=NC[C@H](Cc3ccccc3)N2C[C@H]1C1CCCCC1` [Phe/chg/acetic acid] the value was 119 nM.
On to `CCN1C2=NCC(Cc3ccccc3)N2CC1Cc1ccc(Cl)cc1` (stereo not drawn) [Phe/pCl-Phe/acetic acid], for which the half-inhibitory concentration (IC50) on σ receptor (setting [1]) was found to be 60 nM.
As to `CCN1C2=NC[C@H](Cc3ccccc3)N2C[C@H]1Cc1ccc(Cl)cc1` [Phe/pCl-phe/acetic acid], at σ receptor (setting [1]), the 50% inhibitory concentration (IC50) is 127 nM.
At σ receptor (setting [1]), `CCN1C2=NC[C@H](Cc3ccccc3)N2C[C@@H]1Cc1ccc(F)cc1` [Phe/pF-Phe/acetic acid] registered an IC50 of 215 nM.
On to `CCN1C2=NC[C@H](Cc3ccccc3)N2C[C@H]1Cc1ccc(F)cc1` [Phe/pF-phe/acetic acid], for which the IC50 on σ receptor (setting [1]) amounted to 242 nM.
Take `CCN1C2=NC[C@H](Cc3ccccc3)N2C[C@@H]1Cc1ccc(I)cc1` [Phe/pI-Phe/acetic acid]: the IC50 at σ receptor (setting [1]) worked out at 65 nM.
Compound `COc1ccc(C[C@H]2CN3C(=NC[C@H]3C3CCCCC3)N2CCCC2CCCCC2)cc1` [compound 2] had a half-maximal inhibitory concentration (IC50) on σ receptor (setting [2]) of 585 nM.
On to `COc1ccc(C[C@H]2CN3C(=NC[C@@H]3C3CCCCC3)N2CCCC2CCCCC2)cc1` [compound 3], for which the IC50 on σ receptor (setting [2]) worked out at 23 nM.
On to `COc1ccc(C[C@H]2CN3C(=NC[C@@H]3C)N2CCCC2CCCCC2)cc1` [compound 4], for which the IC50 at σ receptor (setting [2]) is 52 nM.
`CC(C)C[C@@H]1CN2C(=NC[C@@H]2C)N1CCCC1CCCCC1` [compound 7]: the IC50 on σ receptor (setting [2]) was found to be 530 nM; at κ-opioid receptor (setting [3]), 5440 nM.
With `CC(C)C[C@@H]1CN2C(=NC[C@@H]2C2CCCCC2)N1CCCC1CCCCC1` [compound 9], the half-inhibitory concentration (IC50) on σ receptor (setting [2]) stood at 13 nM; at κ-opioid receptor (setting [3]) it was 3740 nM.
On σ receptor (setting [2]), `C1CCC(CCCN2C3=NC[C@@H](C4CCCCC4)N3C[C@@H]2C2CCCCC2)CC1` [compound 11] registered an IC50 of 405 nM.
At σ receptor (setting [2]), `C1CCC(CCCN2C3=NC[C@H](C4CCCCC4)N3C[C@@H]2C2CCCCC2)CC1` [compound 12] returned an IC50 of 210 nM.
As to `COc1ccc(CC2CN3C(=NCC3C)N2CCC23CC4CC(CC(C4)C2)C3)cc1` (stereo not drawn) [compound 13], the IC50 worked out at 235 nM at σ receptor (setting [2]) and 1520 nM on κ-opioid receptor (IC50, 24 individual compounds).
`COc1ccc(CC2CN3C(=NCC3C3CCCCC3)N2CCC23CC4CC(CC(C4)C2)C3)cc1` (stereo not drawn) [compound 15]: the concentration for half-maximal inhibition (IC50) stood at 256 nM on σ receptor (setting [2]) and 4920 nM on κ-opioid receptor (IC50, 24 individual compounds).
For `COc1ccc(CC2CN3C(=NCC3C)N2CCC23CC4CC(CC(C4)C2)C3)cc1` (stereo not drawn) [compound 16] the same measures were 1080 nM and 238 nM.
As for `CC(C)CC1CN2C(=NCC2C)N1CCC12CC3CC(CC(C3)C1)C2` (stereo not drawn) [compound 19], the IC50 was found to be 974 nM on σ receptor (setting [2]) and 3640 nM on κ-opioid receptor (IC50, 24 individual compounds).
For `CC(C)CC1CN2C(=NCC2C2CCCCC2)N1CCC12CC3CC(CC(C3)C1)C2` (stereo not drawn) [compound 21] the same measures were 124 nM and 1210 nM.
